PubChem BioAssay (NCI)
Where “and” joins values, the source holds several entries; their conditions need not be identical. Equal entries are not always repeated.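 Five concentrations, 48 hours, 96-well plates. GI50 = concentration required for 50% inhibition of growth. The concentration for full growth arrest is given as TGI.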

How the values were obtained:
Test in all cases: NCI tumour cell line growth inhibition, 48 h
[1] = tested on: HCT-116 colon
[2] = tested on: OVCAR-5 ovarian
[3] = tested on: NCI/ADR-RES ovarian
[4] = tested on: UACC-257 melanoma
[5] = tested on: SNB-19 CNS
[6] = tested on: MALME-3M melanoma
[7] = tested on: HOP-92 NSCLC
[8] = tested on: MDA-MB-435
[9] = tested on: SR leukemia
[10] = tested on: NCI-H522 lung

Compound	GI50 [1]	TGI [1]	GI50 [2]	TGI [2]	GI50 [3]	TGI [3]	GI50 [4]	TGI [4]	GI50 [5]	TGI [5]	GI50 [6]	TGI [6]	GI50 [7]	TGI [7]	GI50 [8]	TGI [8]	GI50 [9]	TGI [9]	GI50 [10]	TGI [10]
COc1ccc([C@H]2c3cc(OC)c(OC)cc3C=C(C=O)C2CO)cc1OC (stereo not given in full)	5.32 µM	> 100 µM	43 µM	> 100 µM	23.1 µM	> 100 µM	> 100 µM	> 100 µM	8.56 µM	> 100 µM	1.84 µM	7.43 µM	> 100 µM	> 100 µM	0.914 µM	2.81 µM	4.95 µM	> 100 µM		
CCCCc1ccc2nc(NC(=O)OC)[nH]c2c1	0.0482 µM	13.5 µM	1.4 µM	> 100 µM	0.0311 µM	0.121 µM			0.0487 µM	> 100 µM	0.0526 µM	23.7 µM	0.697 µM	> 63 µM	0.0148 µM	0.0379 µM			0.0612 µM	> 68.3 µM
O=C(Nc1ccc(Cl)cc1)NS(=O)(=O)c1ccc2c(c1)CCC2	8.93 µg/mL	> 67.3 µM and 27.9 µg/mL	20 µg/mL	> 91 µM and 39.3 µg/mL			27.8 µg/mL	> 100 µM and 80.6 µg/mL	18.6 µg/mL	> 100 µM and 53.5 µg/mL	13.7 µg/mL	> 71.3 µM and 38.2 µg/mL	8.6 µg/mL	31.5 µg/mL		48.3 µM	19.3 µg/mL	> 100 µM and 91.6 µg/mL	4.86 µg/mL	94.1 µM and 12.5 µg/mL
O=C(CCCCCCc1nc2ccc(Br)cc2[nH]1)NO	0.202 µM	1.03 µM	0.568 µM	22.3 µM	0.216 µM	1.87 µM	0.354 µM	7.17 µM	0.689 µM	> 30 µM	0.203 µM	0.813 µM	0.241 µM	0.905 µM	0.277 µM	1.38 µM	0.148 µM	> 100 µM	0.134 µM	0.859 µM
N/C(=N\N=C\c1ccc2c(c1)OCO2)NO		59.8 µM		> 100 µM		23.1 µM		> 100 µM		> 100 µM		86.8 µM		83.1 µM		> 100 µM		31.7 µM		> 100 µM
CC/C(=C(\c1ccccc1)c1ccc(OCCN(C)C)cc1)c1ccccc1	2.25 µM		6.76 µM		2.86 µM		0.971 µM				1.91 µM		1.43 µM		2.66 µM		1.82 µM		1.42 µM	
COc1cc(-c2cc(-c3ccc(N(C)C)cc3)nc(N3CCC(O)CC3)c2C#N)cc(OC)c1OC	0.287 µM	1.65 µM	0.459 µM	> 36.3 µM	0.35 µM	> 19.8 µM	0.3 µM	0.969 µM	2.44 µM	23.8 µM	0.475 µM	1.54 µM	0.182 µM	0.788 µM	0.325 µM	1.27 µM	0.432 µM	2.94 µM	0.338 µM	1.32 µM
CCOC(=O)c1cc2c(n1Cc1cccc(OC)c1)-c1oncc1CC2	0.47 µM	19.9 µM	17.9 µM	> 100 µM	0.302 µM	5.14 µM	39.6 µM	> 100 µM	4.72 µM	> 100 µM	0.571 µM	76.5 µM	10.5 µM	> 100 µM					0.237 µM	1.42 µM
Cn1cc(-c2ccc3cc(-c4ccc(CC(=O)Nc5cc(C(C)(C)C)nn5C)cc4)cnc3c2)cn1	0.191 µM	> 100 µM	0.606 µM	> 100 µM	0.355 µM	> 100 µM	0.425 µM	> 100 µM	0.473 µM	> 100 µM	0.146 µM	> 100 µM	0.401 µM	> 100 µM	0.309 µM	> 100 µM	0.256 µM	> 100 µM	0.251 µM	> 100 µM
C1=C[C@@H]2c3ccc4cnccc4c3NC[C@@H]2C1		> 100 µM		> 100 µM		> 100 µM		> 100 µM		> 100 µM		> 100 µM		> 100 µM		> 100 µM		> 100 µM		
Cc1ccc(CCC(=O)Nc2ncc(Cc3cc(Cl)ccc3Cl)s2)o1	0.0696 µM	2.14 µM	0.455 µM	14.1 µM	0.159 µM	1.41 µM	13.4 µM	> 100 µM	0.33 µM	5.45 µM	0.945 µM	> 100 µM	2.33 µM	> 45.3 µM	0.0286 µM	0.0949 µM	0.0557 µM	18.9 µM	0.229 µM	12.9 µM
COc1cc[c]([Hg][Cl])cc1	4.49 µM	18.4 µM	20.1 µM	37.6 µM	11.7 µM	> 100 µM	4.16 µM	14.5 µM	4.59 µM	16.6 µM	1.88 µM	3.69 µM	2.26 µM	4.01 µM	1.61 µM	3.2 µM	0.245 µM	4.13 µM	0.45 µM	2.61 µM
COc1c2occc2c(OC)c2c(=O)c(S(=O)(=O)NC(=O)Nc3ccc(Cl)cc3)coc12		> 10 µM		> 10 µM		> 10 µM		> 10 µM		> 10 µM		> 10 µM		> 10 µM		> 10 µM		> 10 µM		> 10 µM
CCN1CCC(C(=O)Nc2n[nH]c3nnc(-c4cccc(F)c4F)cc23)CC1	7.36 µM	> 25 µM	13.9 µM	> 25 µM	> 25 µM	> 25 µM	11.9 µM	> 25 µM	12 µM	> 25 µM	> 22.6 µM	> 25 µM	8.03 µM	> 23.9 µM	10.5 µM	> 25 µM	9.61 µM	> 25 µM	6.68 µM	> 17 µM
COc1ccc(/C=C2/SC(=Nc3c(C)nn(-c4ccccc4)c3N)NC2=O)cc1	3.3 µM	12.5 µM	10.9 µM	63.2 µM	4.36 µM	39.4 µM	6.63 µM	65.6 µM	7.68 µM	> 100 µM	3.77 µM	22.1 µM	1.4 µM	14.4 µM	1.27 µM	3.97 µM	3.63 µM	18 µM	3.1 µM	16.4 µM
COc1ccc(CCNc2nc3ccccc3c3[nH]c4ccccc4c23)cc1OC	1.71 µM	3.52 µM	3.48 µM	11.6 µM	4.73 µM	26 µM	1.99 µM	3.8 µM	3.84 µM	15.4 µM	1.5 µM	3.15 µM	2.43 µM	8 µM	1.72 µM	3.37 µM	2.32 µM	7.93 µM		
CCN(CC)CCn1c(=N)n(CC(O)c2ccc(Cl)c(Cl)c2)c2ccccc21 (stereo not given)	4.47 µM	16.4 µM	10.7 µM	22.8 µM	17.7 µM	36.8 µM			13.5 µM	28.8 µM	2.23 µM	4.44 µM	2.73 µM	13.1 µM	1.75 µM	3.49 µM	2.12 µM	5.56 µM		

Compound	GI50 [1]	TGI [1]	GI50 [2]	TGI [2]	GI50 [3]	TGI [3]	GI50 [4]	TGI [4]	GI50 [5]	TGI [5]	GI50 [6]	TGI [6]	GI50 [7]	TGI [7]	GI50 [8]	TGI [8]	GI50 [9]	TGI [9]	GI50 [10]	TGI [10]
O=C(Nc1nc2ncn(CCOC(=O)c3ccccc3)c2c(=O)[nH]1)c1ccccc1		> 100 µM		> 100 µM		> 100 µM		> 100 µM		> 100 µM		> 100 µM		> 75.6 µM		8.32 µM		> 100 µM		8.32 µM
COc1c(O)c2ccccc2c2cc(O)ccc12		13.8 µM		21.7 µM		29.5 µM		5.24 µM		28.2 µM		3.18 µM		24.3 µM		2.3 µM		> 68.4 µM		15.7 µM
Cc1cc2c(-c3nc4ccccc4[nH]3)c(O)c(O)cc2c(O)c1-c1c(C)cc2c(-c3nc4ccccc4[nH]3)c(O)c(O)cc2c1O	0.00866 µM	3.29 µM	0.0852 µM	> 20.3 µM			0.136 µM	16.2 µM	0.0202 µM	9.62 µM	0.0321 µM	2.26 µM	0.0232 µM	1.54 µM	0.0248 µM	18.3 µM	0.035 µM	> 50 µM	0.0449 µM	0.878 µM
NC(=O)C/C=C/CC(N)=O		> 100 µM		> 100 µM		> 100 µM		> 100 µM		> 100 µM		> 100 µM		> 100 µM		> 100 µM				> 100 µM
Cn1ccnc1CCc1ccc(F)cc1F				> 100 µM		> 100 µM				> 100 µM		> 100 µM				> 100 µM		> 100 µM		> 100 µM
COc1ccc(C2SC(N)=Nc3c2c(C)nn3C(=O)c2ccncc2)cc1 (stereo not given)		> 100 µM		> 100 µM		> 100 µM		> 100 µM		> 100 µM		> 100 µM		> 100 µM		> 100 µM		73 µM		
COc1ccccc1/C=C1\COc2ccc(O)c(O)c2C1=O	1.61 µM	3.99 µM	2.33 µM	5.48 µM	1.88 µM	6.64 µM			2.61 µM	26.2 µM	1.38 µM	3.72 µM	2.98 µM	20.8 µM	1.57 µM	4.96 µM	0.407 µM	11.9 µM	0.214 µM	0.656 µM
CC1(CCCC2(C)CCNC2=O)OCCO1 (stereo not given)		> 10 µM		> 10 µM		> 10 µM		> 10 µM		> 10 µM		> 10 µM				> 10 µM		> 10 µM		
O=C(c1ccccc1)c1nnn(Cc2cccc(Cl)c2)c1C(=O)c1ccccc1		> 100 µM		> 100 µM				> 100 µM		> 100 µM		> 100 µM		> 100 µM				> 100 µM		> 100 µM
CC/C=C/[C@@H]1C=C[C@@H]2CCC[C@H]2[C@@H]1CC[C@H](O)[C@H](C)N	1.53 µM	2.86 µM	1.69 µM	3.55 µM	1.97 µM	4.4 µM					1.35 µM	2.95 µM	1.41 µM	3.89 µM	1.7 µM	3.27 µM	1.39 µM	3 µM	1.82 µM	3.99 µM
[N-]=[N+]=Nc1ccc(S(=O)(=O)Oc2cc(OS(=O)(=O)c3ccc(N=[N+]=[N-])cc3)cc(OS(=O)(=O)c3ccc(N=[N+]=[N-])cc3)c2)cc1		> 100 µM		> 100 µM				> 100 µM		> 10 µM		> 100 µM		> 100 µM				> 100 µM		> 100 µM
COc1ccc(C(=O)c2cc3c(N)c(C(=O)Nc4cccc(Cl)c4)sc3nc2C)cc1	1.45 µM	> 33.3 µM	1.69 µM	> 33.3 µM	1.49 µM	> 33.3 µM	30.7 µM	> 33.3 µM	1.46 µM	> 33.3 µM	1.28 µM	> 33.3 µM	30.7 µM	> 33.3 µM			1.15 µM	> 33.3 µM	1.1 µM	> 33.3 µM
COC(=O)C1=C(O)C(O)=C(C(=O)OC)CC1		28.9 µM		> 100 µM				> 100 µM		> 100 µM		> 100 µM		> 100 µM				> 100 µM		> 100 µM
COc1ccc(CN(O)C2C(CO)OC(n3cc(I)c(=O)[nH]c3=O)C2O)cc1 (stereo not given)		> 100 µM		> 100 µM				> 100 µM		> 100 µM		> 100 µM		> 100 µM				> 100 µM		> 100 µM
O=C(CC(O)(c1ccccc1)c1ccc(Cl)cc1)NC(=O)c1ccccc1O (stereo not given)		52.6 µM		8.95 µM				32.6 µM		> 100 µM		70.6 µM		6.59 µM				39.6 µM		14.9 µM
Cc1c(C(=O)/C=C/c2ccco2)[n+](=O)c2ccccc2n1[O-]		> 100 µM		> 100 µM				> 100 µM		> 100 µM		> 100 µM		> 100 µM				> 100 µM		> 100 µM
